Key:
Assay type in all cases: cell-based, human
[1] = system: hyaluronan synthase (HAS3) gene expression; experiment: HAS3 gene expression in tension-applied three-dimensional artificial skin (real-time PCR); settings: artificial skin of the present invention; 10 μM ATRA solution on gauze on epidermis for 1 hour, then 5 hours culture (6 hours after addition)
Method: The artificial skin was such that, on the 6th day of culture, this was replaced with a medium for assay use (Dulbecco's Modified Eagle's Medium containing 1 μM hydrocortisone, 5 μg/mL insulin, and 10% fetal bovine serum). On the 8th day of culture, gauze that had been impregnated with 0.2% HPC solution or 10 μM ATRA solution was placed on the surface of the epidermis, and this was cultured for 1 hour in a 5% CO2 incubator at 37° C. After 1 hour, the gauze was removed, and this was further cultured for 5 hours in a 5% CO2 incubator at 37° C. Following culture of the artificial skin for 6 hours, the artificial skin was removed from the container in such fashion as to not cause the epidermal tissue to be delaminated therefrom, and a razor was used to cut this in half. After using […] from an RNeasy Plus Mini Kit (manufactured by Qiagen) to dissolve tissue by pulverizing with beads, phenol chloroform was used to remove protein therefrom, following which column purification was carried out as directed by the RNeasy Plus Mini Kit protocol to obtain total RNA.
SuperScript VILO Master Mix (manufactured by Invitrogen) was used as directed by the attached manual to carry out synthesis of cDNA from the purified total RNA. […]

[2] = system: elastin (ELN) gene expression; experiment: Elastin gene expression in tension-applied three-dimensional artificial skin (real-time PCR); settings: artificial skins prepared using means of the present invention; 10 ng/mL TGF-β in assay medium, 48 hours
Method: (§1) The artificial skin was such that, on the 6th day of culture, this was replaced with a medium for assay use (Dulbecco's Modified Eagle's Medium containing 1 μM hydrocortisone, 5 μg/mL insulin, and 10% fetal bovine serum). […] After using RNT solution from an RNeasy Plus Mini Kit (manufactured by Qiagen) to dissolve tissue by pulverizing with beads, phenol chloroform was used to remove protein therefrom, following which column purification was carried out as directed by the RNeasy Plus Mini Kit protocol to obtain total RNA.
(§2) SuperScript VILO Master Mix (manufactured by Invitrogen) was used as directed by the attached manual to carry out synthesis of cDNA from the purified total RNA. The synthesized cDNA was mixed with SYBR Premix Ex Taq (manufactured by Takara) and primer mix (a mixture of forward and reverse primers), 12.5 μL of reaction solution was prepared in each well of a 96-well plate for PCR use, and a QuantStudio 12K Flex (Applied Biosystems) was used to carry out real-time PCR. The real-time PCR reaction was such that 40 cycles comprising 95° C. for 30 seconds for initial denaturation, and 95° C. for 5 seconds and 60° C. for 31 seconds for the PCR reaction, were carried out. […]

[3] = system: collagen 1A1 (COL1A1) gene expression; experiment: Collagen 1A1 gene expression in tension-applied three-dimensional artificial skin (real-time PCR); settings: artificial skins prepared using means of the present invention; 10 ng/mL TGF-β in assay medium, 48 hours
Method: as §1, §2

Row | Compound | increase of HAS3 gene expression as compared with the situation when unstimulated [1] [×] | increase of elastin (ELN) gene expression as compared with the situation when unstimulated [2] [×] | increase of COL1A1 gene expression as compared with the situation when unstimulated [3] [×]
1 | CC1=C(/C=C/C(C)=C/C=C/C(C)=C/C(=O)O)C(C)(C)CCC1 [ATRA] | ≥ 3 | – | –
2 | TGF-β | – | ≥ 3 | ≥ 1.5

Source: US20250101356A1, “CONTAINER FOR PRODUCING TENSION-APPLIED THREE-DIMENSIONAL ARTIFICIAL SKIN AND PRODUCTION METHOD THEREOF” (RIKEN, priority 2022, published 2025)
